US11267800B2, “Cyclohexyl acid triazole azines as LPA antagonists” (BRISTOL-MYERS SQUIBB COMPANY, priority 2017, dated 2022)
pIC50: −log10 of the molar value.

Molecular target: T1, human LPA1 (Homo sapiens, UniProt Q92633)
T1 construct: expressed in transfected cells; host or cells: Chinese hamster ovary (CHO) cells
Experiment: LPA1 functional antagonist assay (calcium flux)
Type: cell-based
Details: CHO cells overexpressing human LPA1; inhibition of calcium flux induced by 10 nM LPA; read-out: hLPA1 IC50
Experimental: The effectiveness of compounds of the present invention as LPA1 inhibitors can be determined in an LPA1 functional antagonist assay as follows:
Chinese hamster ovary cells overexpressing human LPA1 were plated overnight (15,000 cells/well) in poly-D-lysine coated 384-well microplates (Greiner bio-one, Cat #781946) in DMEM/F12 medium (Gibco, Cat #11039). Following overnight culture, cells were loaded with calcium indicator dye (AAT Bioquest Inc, Cat #34601) for 30 minutes at 37° C. The cells were then equilibrated to room temperature for 30 minutes before the assay. Test compounds solubilized in DMSO were transferred to 384 well non-binding surface plates (Corning, Cat #3575) using the Labcyte Echo acoustic dispense and diluted with assay buffer [1×HBSS with calcium/magnesium (Gibco Cat #14025-092), 20 mM HEPES (Gibco Cat #15630-080) and 0.1% fatty acid free BSA (Sigma Cat #A9205)] to a final concentration of 0.5% DMSO. Diluted compounds were added to the cells by FDSS6000 (Hamamatsu) at final concentrations ranging from 0.08 nM to 5 μM. and were then incubated for 20 min at room temperature at which time LPA (Avanti Polar Lipids Cat #857130C) was added at final concentrations of 10 nM to stimulate the cells. The compound IC50 value was defined as the concentration of test compound which inhibited 50% of the calcium flux induced by LPA alone. IC50 values were determined by fitting data to a 4-parameter logistic equation (GraphPad Prism, San Diego Calif.).

T1 sequence (Q92633 whole entry): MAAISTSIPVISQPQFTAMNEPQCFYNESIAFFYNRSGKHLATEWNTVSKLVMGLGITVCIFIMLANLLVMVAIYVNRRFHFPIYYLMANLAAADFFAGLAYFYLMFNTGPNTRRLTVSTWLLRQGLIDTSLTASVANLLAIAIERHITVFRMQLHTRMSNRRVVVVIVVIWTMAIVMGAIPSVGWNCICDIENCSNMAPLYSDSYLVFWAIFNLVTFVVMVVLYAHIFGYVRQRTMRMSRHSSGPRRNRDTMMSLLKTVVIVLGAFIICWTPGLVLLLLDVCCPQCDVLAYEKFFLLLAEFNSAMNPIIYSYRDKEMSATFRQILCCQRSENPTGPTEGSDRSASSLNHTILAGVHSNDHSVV

| SMILES | pIC50 |
| --- | --- |
| Cc1nc(-c2nnn(C)c2CNc2ncnc(NCCC3CC3)n2)ccc1O[C@H]1CCC[C@H](C(=O)O)C1 [Example 48] | 6.66 |
| CCCCNc1nc(NCc2c(-c3ccc(O[C@H]4CCC[C@H](C(=O)O)C4)c(C)n3)nnn2C)ncc1F [Example 49] | 7.16 |
| Cc1nc(-c2nnn(C)c2CNc2nccc(NCCC3CC3)n2)ccc1O[C@H]1CCC[C@H](C(=O)O)C1 [Example 50] | 6.61 |
| CCCNc1ccnc(NCc2c(-c3ccc(O[C@H]4CCC[C@H](C(=O)O)C4)c(C)n3)nnn2C)n1 [Example 51] | 6.63 |
| Cc1nc(-c2nnn(C)c2CNc2ncc(F)c(NCCC(C)C)n2)ccc1O[C@H]1CCC[C@H](C(=O)O)C1 [Example 52] | 7.20 |
| Cc1nc(-c2nnn(C)c2CNc2ncc(F)c(NC3CCC3)n2)ccc1O[C@H]1CCC[C@H](C(=O)O)C1 [Example 53] | 7.24 |
| Cc1nc(-c2nnn(C)c2CNc2ncc(F)c(Nc3ccccc3)n2)ccc1O[C@H]1CCC[C@H](C(=O)O)C1 [Example 54] | 6.87 |
| Cc1nc(-c2nnn(C)c2CNc2ccnc(OCC(C)(C)F)n2)ccc1O[C@H]1CCC[C@H](C(=O)O)C1 [Example 55] | 6.72 |
| Cc1nc(-c2nnn(C)c2CNc2nccc(OCC(C)(C)F)n2)ccc1O[C@H]1CCC[C@H](C(=O)O)C1 [Example 56] | 7.28 |
| Cc1nc(-c2nnn(C)c2CNc2ncc(F)c(NCCC3CC3)n2)ccc1O[C@H]1CCC[C@H](C(=O)O)C1 [Example 57] | 7.68 |
| CCNc1nc(NCc2c(-c3ccc(O[C@H]4CCC[C@H](C(=O)O)C4)c(C)n3)nnn2C)ncc1F [Example 58] | 7.09 |
| Cc1nc(-c2nnn(C)c2CNc2ncc(F)c(NC(C)C)n2)ccc1O[C@H]1CCC[C@H](C(=O)O)C1 [Example 59] | 7.23 |
| Cc1nc(-c2nnn(C)c2CNc2ncc(F)c(NCC(C)C)n2)ccc1O[C@H]1CCC[C@H](C(=O)O)C1 [Example 60] | 7.47 |
| Cc1nc(-c2nnn(C)c2CNc2ccnc(OCC(C)(C)C)n2)ccc1O[C@H]1CCC[C@H](C(=O)O)C1 [Example 61] | 6.63 |
| Cc1nc(-c2nnn(C)c2CNc2nccc(NCCc3ccc(F)cc3)n2)ccc1O[C@H]1CCC[C@H](C(=O)O)C1 [Example 62] | 7.20 |
| Cc1nc(-c2nnn(C)c2CNc2nccc(NCCc3ccccc3)n2)ccc1O[C@H]1CCC[C@H](C(=O)O)C1 [Example 63] | 7.07 |
| CCCNc1nc(NCc2c(-c3ccc(O[C@H]4CCC[C@H](C(=O)O)C4)c(C)n3)nnn2C)ncc1F [Example 64] | 7.34 |
| Cc1nc(-c2nnn(C)c2CNc2nccc(OCC(C)(C)C)n2)ccc1O[C@H]1CCC[C@H](C(=O)O)C1 [Example 65] | 7.44 |
| Cc1nc(-c2nnn(C)c2CNc2nccc(C3CCCC3)n2)ccc1O[C@H]1CCC[C@H](C(=O)O)C1 [Example 66] | 7.92 |
| [2H]C([2H])([2H])C([2H])(Oc1ccnc(NCc2c(-c3ccc(O[C@H]4CCC[C@H](C(=O)O)C4)c(C)n3)nnn2C)n1)C([2H])([2H])[2H] [Example 67] | 7.39 |
| CCOc1ccnc(NCc2c(-c3ccc(O[C@H]4CCC[C@H](C(=O)O)C4)c(C)n3)nnn2C)c1 [Example 68] | 6.88 |
| Cc1nc(-c2nnn(C)c2CNc2nccc(OCC(C)F)n2)ccc1O[C@H]1CCC[C@H](C(=O)O)C1 (stereo partly drawn) [Example 69] | 7.27 |
| Cc1nc(-c2nnn(C)c2CNc2ncnc(N3CCCC3)n2)ccc1O[C@H]1CCC[C@H](C(=O)O)C1 [Example 70] | 6.50 |
| [2H]C([2H])([2H])C([2H])([2H])Oc1ccnc(NCc2c(-c3ccc(O[C@H]4CCC[C@H](C(=O)O)C4)c(C)n3)nnn2C)n1 [Example 71] | 7.89 |
| Cc1nc(-c2nnn(C)c2CNc2cc(OC(F)(F)F)ccn2)ccc1O[C@H]1CCC[C@H](C(=O)O)C1 [Example 72] | 7.24 |
| Cc1nc(-c2nnn(C)c2CNc2ccnc(OCC(F)F)n2)ccc1O[C@H]1CCC[C@H](C(=O)O)C1 [Example 73] | 6.88 |
| Cc1nc(-c2nnn(C)c2CNc2nccc(OCC3(C)COC3)n2)ccc1O[C@H]1CCC[C@H](C(=O)O)C1 [Example 74] | 6.89 |
